Holding throughout (assay type): cell-based, Cryptococcus neoformans
Assay [1] has as its system C. neoformans wild-type strain H99. Nature of the assay: microbe, parasite or virus in culture. As to conditions: for MIC: drug alone, H99 wild type, CLSI broth microdilution, RPMI, 2.5*10^3 cells/mL, 37°C, read at 24 and 48 h; for MIC H99: Table S1, drug alone, wild type H99. The method, then: (§1) Our assays followed standard CLSI protocol for broth microdilution assays using yeasts ([32]). Microbes were passaged in YPD media at 37°C with mixing for 2 days before harvesting with an inoculation loop to prepare monocultures on Sabouraud Dextrose Agar (SDA) plates. Monocultures on SDA plates were incubated for 2 days at 37°C before harvesting cells for microdilution assays. RPMI media (100 μL) was charged to each of the 96 wells in a 96-well plate, with an additional 100 μL in the first column. Peptide-DMSO solution (4 μL) at 12.8 mg/mL was charged to each of the wells in the first column. The 100 μL was serially diluted by a factor of 2 from the first column to the 11th column. Microbe inoculant was then prepared. An inoculation loop was used to transfer 1–3 colonies of cells to 1 mL phosphate buffer solution (PBS). The PBS and microbe solution was made uniform by vortex mixing. Cell concentration was computed by comparing the absorbance at 530 nm to 1x McFarland standard solution and multiplying the resulting ratio by 10^7 cell/mL conversion factor. Plate inoculant was prepared by diluting the PBS microbe solution to 5000 cell/mL, in RPMI media. A 100 μL aliquot of cells was transferred to each of the wells on the plate other than column 11 for the no growth control. The operating volume was 200 μL, with 500 CFU per well for a final concentration of 2.5*10^3 cells/mL. Inoculated plates were incubated for 48 h at 37°C and read at 24 and 48 h ([33]).
For orientation: Dilution methods test growth across graded concentrations, often in twofold steps.

In another assay the test system is C. neoformans H99. As to conditions: for FIC H99 Caspofungin: Table S1, concentration of caspofungin in combination with the peptide; for FIC H99 Peptide: Table S1, concentration of peptide in combination with caspofungin. On the procedure: (§2) Again, 200 μL was the operating volume, 500CFU per well, 2.5*10^3 cell/mL. Plates were incubated for 48 h at 37°C and read thereafter. The Fractional Inhibitory Concentration Index were calculated in Equation 1: FICIndex=FICA/MICA+FICB/MICB

In another assay the test system is ΔCDC50 mutant strain. As to conditions: for FIC ΔCDC50 Caspofungin: Table S1, concentration of caspofungin in combination with the peptide; for FIC ΔCDC50 Peptide: Table S1, concentration of peptide in combination with caspofungin. On the procedure:
as §2

Another assay relates to cdc50Δ mutant strain. As to conditions: Table S1, drug alone. On the procedure: as §1
Assay [2] concerns exofacial PS on C. neoformans cells. The assay can be described thus: AF350-annexin V flow cytometry assay. As to conditions: 0.128 mg/mL peptide, 5*10^6 cell/mL, 20 min at 25°C, triplicate; control 0.2 ± 0.1%. The text has this: We sought to determine whether the activities of the peptides were related to the lipid-flipping activity of the P4-ATPase. […] The intensity of the AF350-annexin V signal corresponds to concentration of PS on the exofacial side of the membrane. The propidium iodine signal corresponds to cell viability. […] Single cells were first selected and gated based on morphology to ensure homogeneity among the cell population (4A, 4B). We examined cells with low propidium iodine intensity (PI-A < 9 RU) and high AF350-annexin V intensity (Annexin V-A > 9 RU) (4C, 4D). Under these gating parameters there should be, respectively, low nonspecific cell death and high exofacial PS.
Stock microbes were defrosted from the –80°C freezer and were passed twice for 48 h each in YPD media. The YPD media was removed by spinning down and the supernatant was decanted. Pelletized cells were resuspended in 1 mL PBS media and washed for 5 min with incubation at 25°C and 250 RPM. Washed cells were spun down again and suspended in 1 mL of PBS solution. cells were diluted 20-fold into 1 mL fungal working solution in an eppendorf. Cell concentration was quantified via comparison to 1X McFarlain’s standard on a plate reader using the absorbance value at 530 nm. An aliquot of 1*10^6 cells in 100 μL was created (1*10^7cell/mL). A 100 μL aliquot of peptide working solution at 0.256 mg/mL was added to the cell suspension for final operating parameters of 200 μL, 0.128 mg/mL peptide, and 5*10^6cell/mL. The cells were incubated for 20 min at 25°C and 250RPM. Baseline and experimental samples were prepared in triplicate. Cells were stained using an operating concentration of 0.001 mg/mL Propidium Iodine (PI) and a 40-fold dilution of Alexa Fluor 350 labeled annexin V as per manufactures instructions. After staining the cells, samples were spun down and supernatant decanted. Cells were then fixed in 4% formaldehyde for 5 min. Fixed cells were spun down and supernatant decanted and resuspended in 400 μL 1% formaldehyde for flowcytometry. Samples were collected at a slow flow rate on a MACS Quant 10 device (Miltenyi Biotech, Auburn, CA) with 50,000 events collected per injection.
For orientation: Flow cytometry measures light scatter and fluorescence of single cells or particles in a stream.

≈ marks a conversion by molar mass, not a printed value. Residues, ends and D or L forms follow the SMILES beside them. *: point of attachment. Palmitoyl = CCCCCCCCCCCCCCCC(=O)*; Myristoyl = CCCCCCCCCCCCCC(=O)*; Decanoyl = CCCCCCCCCC(=O)*; Hexanoyl = CCCCCC(=O)* Some results are limits rather than exact numbers.

In assay [1], `CCCCCCCCCCCCCC(=O)N[C@@H](Cc1c[nH]c2ccccc12)C(=O)NCC(=O)NCC(=O)N[C@H](C(=O)N[C@@H](CCCCN)C(=O)N[C@@H](C)C(=O)N[C@@H](CC(N)=O)C(=O)N[C@@H](Cc1ccc(O)cc1)C(=O)N[C@@H](C)C(=O)O)[C@@H](C)CC` [Peptide K6A-Ma] (Myristoyl-WGGIKANYA-OH) came in with an MIC greater than 128 µg/mL.
In the case of `CCCCCCCCCCCCCC(=O)N[C@@H](CO)C(=O)NCC(=O)N[C@H](C(=O)N[C@@H](C)C(=O)N[C@@H](Cc1c[nH]c2ccccc12)C(=O)NCC(=O)NCC(=O)N[C@H](C(=O)N[C@@H](CCCCN)C(=O)O)[C@@H](C)CC)[C@@H](C)CC` [KS9-Ma] (Myristoyl-SGIAWGGIK-OH), the “MIC H99” value in assay [1] was greater than 128 µg/mL.
Consider `CCCCCCCCCCCCCCCC(=O)N[C@@H](CO)C(=O)N[C@@H](CCC(=O)O)C(=O)N[C@@H](CO)C(=O)NCC(=O)N[C@H](C(=O)N[C@@H](C)C(=O)N[C@@H](Cc1c[nH]c2ccccc12)C(=O)NCC(=O)NCC(=O)N[C@H](C(=O)N[C@@H](CCCCN)C(=O)N[C@@H](CCCCN)C(=O)N[C@@H](CC(N)=O)C(=O)N[C@@H](Cc1ccc(O)cc1)C(=O)N[C@@H](C)C(=O)O)[C@@H](C)CC)[C@@H](C)CC` [AS15-Pa] (Palmitoyl-SESGIAWGGIKKNYA-OH), for which, in assay [1], the “MIC H99” value was greater than 128 µg/mL. In the assay with C. neoformans H99 (H99), the “FIC H99 Caspofungin” value amounted to 8 µg/mL and the “FIC H99 Peptide” value was found to be 0.5 µg/mL. Further, in the assay with ΔCDC50 mutant strain, the “FIC ΔCDC50 Caspofungin” value came to 2 µg/mL and the “FIC ΔCDC50 Peptide” value came to 2 µg/mL.
Regarding H-YVDGFPNLREDEHFQ-OH [QY15], the “MIC H99” value in assay [1] was greater than 128 µg/mL. Moreover, in the assay with C. neoformans H99 (H99), the “FIC H99 Caspofungin” value worked out at 8 µg/mL and the “FIC H99 Peptide” value is 0.5 µg/mL. For the same compound, in the assay on ΔCDC50 mutant strain, the “FIC ΔCDC50 Caspofungin” value was 1 µg/mL and the “FIC ΔCDC50 Peptide” value came out at 0.5 µg/mL.
`CCCCCCCCCCCCCC(=O)N[C@@H](CO)C(=O)N[C@@H](CCC(=O)O)C(=O)N[C@@H](CO)C(=O)NCC(=O)N[C@H](C(=O)N[C@@H](C)C(=O)N[C@@H](Cc1c[nH]c2ccccc12)C(=O)NCC(=O)NCC(=O)O)[C@@H](C)CC` [GS9-Ma] (Myristoyl-SESGIAWGG-OH): the “MIC H99” value in assay [1] is greater than 128 µg/mL. Besides, the “MIC ΔCDC50” value in the assay with cdc50Δ mutant strain is greater than 128 µg/mL.
`CCCCCCCCCC(=O)N[C@@H](CO)C(=O)N[C@@H](CCC(=O)O)C(=O)N[C@@H](CO)C(=O)NCC(=O)N[C@H](C(=O)N[C@@H](C)C(=O)N[C@@H](Cc1c[nH]c2ccccc12)C(=O)NCC(=O)NCC(=O)N[C@H](C(=O)N[C@@H](CCCCN)C(=O)N[C@@H](CCCCN)C(=O)N[C@@H](CC(N)=O)C(=O)N[C@@H](Cc1ccc(O)cc1)C(=O)N[C@@H](C)C(=O)O)[C@@H](C)CC)[C@@H](C)CC` [AS15-Da] (Decanoyl-SESGIAWGGIKKNYA-OH): the “MIC H99” value in assay [1] was greater than 128 µg/mL.
Consider `CCCCCCCCCCCCCC(=O)N[C@@H](Cc1c[nH]c2ccccc12)C(=O)NCC(=O)NCC(=O)N[C@H](C(=O)N[C@@H](C)C(=O)N[C@@H](C)C(=O)N[C@@H](CC(N)=O)C(=O)N[C@@H](Cc1ccc(O)cc1)C(=O)N[C@@H](C)C(=O)O)[C@@H](C)CC` [K5A;K6A-Ma] (Myristoyl-WGGIAANYA-OH), for which the MIC in assay [1] was greater than 128 µg/mL. For the same compound, the “percentage of cells with low propidium iodine (PI-A < 9 RU) and high AF350-annexin V intensity (Annexin V-A > 9 RU)” value in assay [2] amounted to 1.3 ± 0.9%.
On to H-SESGIAWGGIKKNYA-OH [AS15], for which the “MIC H99” value in assay [1] was greater than 128 µg/mL. In the assay on C. neoformans H99 (H99), the “FIC H99 Caspofungin” value stood at 8 µg/mL and the “FIC H99 Peptide” value worked out at 0.5 µg/mL. In addition, in the assay on ΔCDC50 mutant strain, the “FIC ΔCDC50 Caspofungin” value is 1 µg/mL and the “FIC ΔCDC50 Peptide” value was determined as 0.5 µg/mL.
Take `CCCCCCCCCCCCCC(=O)N[C@@H](Cc1c[nH]c2ccccc12)C(=O)NCC(=O)NCC(=O)N[C@H](C(=O)N[C@@H](C)C(=O)N[C@@H](CCCCN)C(=O)N[C@@H](CC(N)=O)C(=O)N[C@@H](Cc1ccc(O)cc1)C(=O)N[C@@H](C)C(=O)O)[C@@H](C)CC` [Peptide K5A-Ma] (Myristoyl-WGGIAKNYA-OH): the MIC in assay [1] is greater than 128 µg/mL. For the same compound, the “percentage of cells with low propidium iodine (PI-A < 9 RU) and high AF350-annexin V intensity (Annexin V-A > 9 RU)” value in assay [2] came to 5.6 ± 0.1%.
Take `CCCCCC(=O)N[C@@H](CO)C(=O)N[C@@H](CCC(=O)O)C(=O)N[C@@H](CO)C(=O)NCC(=O)N[C@H](C(=O)N[C@@H](C)C(=O)N[C@@H](Cc1c[nH]c2ccccc12)C(=O)NCC(=O)NCC(=O)N[C@H](C(=O)N[C@@H](CCCCN)C(=O)N[C@@H](CCCCN)C(=O)N[C@@H](CC(N)=O)C(=O)N[C@@H](Cc1ccc(O)cc1)C(=O)N[C@@H](C)C(=O)O)[C@@H](C)CC)[C@@H](C)CC` [AS15-Ha] (Hexanoyl-SESGIAWGGIKKNYA-OH): the “MIC H99” value in assay [1] is greater than 128 µg/mL.
Take `CCCCCCCCCCCCCC(=O)N[C@@H](Cc1ccc(O)cc1)C(=O)N[C@H](C(=O)N[C@@H](CC(=O)O)C(=O)NCC(=O)N[C@@H](Cc1ccccc1)C(=O)N1CCC[C@H]1C(=O)N[C@@H](CC(N)=O)C(=O)N[C@@H](CC(C)C)C(=O)N[C@@H](CCCNC(=N)N)C(=O)N[C@@H](CCC(=O)O)C(=O)N[C@@H](CC(=O)O)C(=O)N[C@@H](CCC(=O)O)C(=O)N[C@@H](Cc1c[nH]cn1)C(=O)N[C@@H](Cc1ccccc1)C(=O)N[C@@H](CCC(N)=O)C(=O)O)C(C)C` [QY15-Ma] (Myristoyl-YVDGFPNLREDEHFQ-OH): the “MIC H99” value in assay [1] is greater than 128 µg/mL. Moreover, in the assay on C. neoformans H99 (H99), the “FIC H99 Caspofungin” value is 8 µg/mL and the “FIC H99 Peptide” value is 0.5 µg/mL. Further, in the assay with ΔCDC50 mutant strain, the “FIC ΔCDC50 Caspofungin” value was found to be 1 µg/mL and the “FIC ΔCDC50 Peptide” value came out at 0.5 µg/mL.
On to `CCCCCCCCCCCCCCCC(=O)N[C@@H](Cc1c[nH]c2ccccc12)C(=O)NCC(=O)NCC(=O)N[C@H](C(=O)N[C@@H](CCCCN)C(=O)N[C@@H](CCCCN)C(=O)N[C@@H](CC(N)=O)C(=O)N[C@@H](Cc1ccc(O)cc1)C(=O)N[C@@H](C)C(=O)O)[C@@H](C)CC` [AW9-Pa] (Palmitoyl-WGGIKKNYA-OH), for which the “MIC H99” value in assay [1] was greater than 128 µg/mL. The “MIC ΔCDC50” value in the assay on cdc50Δ mutant strain is 8 µg/mL (≈ 6.28 µM). Further, in the assay with C. neoformans H99 (H99, checkerboard, caspofungin alone 16 μg/mL), the “MIC of caspofungin in the presence of 0.5 μg/mL peptide” value stood at 8 µg/mL. The “FIC Index H99” value in the assay with C. neoformans H99 (Table S1, caspofungin + peptide, H99) is on record as 0.5-1. Further, in the assay with C. neoformans H99 (H99), the “FIC H99 Caspofungin” value is 8 µg/mL and the “FIC H99 Peptide” value was 0.5 µg/mL. Moreover, the “FIC Index ΔCDC50” value in the assay on ΔCDC50 mutant strain (Table S1, caspofungin + peptide) worked out at 0.75. For the same compound, in the assay on ΔCDC50 mutant strain, the “FIC ΔCDC50 Caspofungin” value worked out at 2 µg/mL and the “FIC ΔCDC50 Peptide” value is 1 µg/mL.

The values are drawn from article PMC9045296, “Development of Antifungal Peptides against Cryptococcus neoformans; Leveraging Knowledge about the cdc50Δ Mutant Susceptibility for Lead Compound Development” (Microbiology Spectrum, 2022).
